Measured values: ChEMBL document CHEMBL4507259 (2021)
The source made the active and inactive calls. No cut-off for these calls is given here.

Key:
LNCaP-Clone-FGC = assay: LnCaP-FGC Proliferation; assay type: functional, cell-based; settings: Homo sapiens
DU-145 = assay: DU-145 Proliferation; assay type: functional, cell-based; settings: Homo sapiens
[1] = molecular target: Beta-1 adrenergic receptor (Homo sapiens) (UniProt P08588); assay: beta 1 (h) CEREP ligand profiling; settings: filed as agonist, Compound concentration 10.0 uM
[2] = molecular target: Muscarinic acetylcholine receptor M3 (Homo sapiens) (UniProt P20309); assay: M3 (h) CEREP ligand profiling; settings: filed as antagonist, Compound concentration 10.0 uM
[3] = molecular target: Acetylcholinesterase (Homo sapiens) (UniProt P22303); assay: acetylcholinesterase (h) CEREP ligand profiling; settings: Compound concentration 10.0 uM
[4] = molecular target: Tyrosine-protein kinase ABL1 (Homo sapiens) (UniProt P00519); settings: Compound concentration 1000.0 nM
[5] = molecular target: Atypical kinase COQ8A, mitochondrial (Homo sapiens) (UniProt Q8NI60); settings: Compound concentration 1000.0 nM
[6] = tested on: ALK tyrosine kinase receptor (Homo sapiens), Q9UM73 [L1196M]; settings: Compound concentration 1000.0 nM
[7] = molecular target: Calcium/calmodulin-dependent protein kinase type II subunit gamma (Homo sapiens) (UniProt Q13555); settings: Compound concentration 1000.0 nM
[8] = molecular target: Calcium/calmodulin-dependent protein kinase type IV (Homo sapiens) (UniProt Q16566); settings: Compound concentration 1000.0 nM
[9] = molecular target: Cyclin-dependent kinase-like 1 (Homo sapiens) (UniProt Q00532); settings: Compound concentration 1000.0 nM
[10] = molecular target: Dual specificity protein kinase CLK3 (Homo sapiens) (UniProt P49761); settings: Compound concentration 1000.0 nM
[11] = molecular target: Casein kinase I isoform alpha (Homo sapiens) (UniProt P48729); settings: Compound concentration 1000.0 nM
[12] = molecular target: Myotonin-protein kinase (Homo sapiens) (UniProt Q09013); settings: Compound concentration 1000.0 nM
[13] = molecular target: Serine/threonine-protein kinase 17B (Homo sapiens) (UniProt O94768); settings: Compound concentration 1000.0 nM
[14] = molecular target: Mitogen-activated protein kinase 4 (Homo sapiens) (UniProt P31152); settings: Compound concentration 1000.0 nM
[15] = molecular target: Serine/threonine-protein kinase/endoribonuclease IRE1 (Homo sapiens) (UniProt O75460); settings: Compound concentration 1000.0 nM
[16] = molecular target: Fibroblast growth factor receptor 4 (Homo sapiens) (UniProt P22455); settings: Compound concentration 1000.0 nM
[17] = molecular target: Interleukin-1 receptor-associated kinase 4 (Homo sapiens) (UniProt Q9NWZ3); settings: Compound concentration 1000.0 nM
[18] = molecular target: Tyrosine-protein kinase Lck (Homo sapiens) (UniProt P06239); settings: Compound concentration 1000.0 nM
[19] = molecular target: Mitogen-activated protein kinase kinase kinase 4 (Homo sapiens) (UniProt Q9Y6R4); settings: Compound concentration 1000.0 nM
[20] = molecular target: Mitogen-activated protein kinase kinase kinase kinase 4 (Homo sapiens) (UniProt O95819); settings: Compound concentration 1000.0 nM
[21] = molecular target: Microtubule-associated serine/threonine-protein kinase 1 (Homo sapiens) (UniProt Q9Y2H9); settings: Compound concentration 1000.0 nM
[22] = molecular target: Serine/threonine-protein kinase OSR1 (Homo sapiens) (UniProt O95747); settings: Compound concentration 1000.0 nM
[23] = molecular target: Serine/threonine-protein kinase PAK 5 (Homo sapiens) (UniProt Q9P286); settings: Compound concentration 1000.0 nM
[24] = molecular target: Phosphorylase b kinase regulatory subunit alpha, liver isoform (Homo sapiens) (UniProt P46019); settings: Compound concentration 1000.0 nM
[25] = tested on: Phosphatidylinositol 4,5-bisphosphate 3-kinase catalytic subunit alpha isoform (Homo sapiens), P42336 [E542K]; settings: Compound concentration 1000.0 nM
[26] = molecular target: Phosphatidylinositol 4,5-bisphosphate 3-kinase catalytic subunit delta isoform (Homo sapiens) (UniProt O00329); settings: Compound concentration 1000.0 nM
[27] = molecular target: Serine/threonine-protein kinase pim-2 (Homo sapiens) (UniProt Q9P1W9); settings: Compound concentration 1000.0 nM
[28] = molecular target: Serine/threonine-protein kinase pim-3 (Homo sapiens) (UniProt Q86V86); settings: Compound concentration 1000.0 nM
[29] = molecular target: Serine/threonine-protein kinase PLK4 (Homo sapiens) (UniProt O00444); settings: Compound concentration 1000.0 nM
[30] = molecular target: Serine/threonine-protein kinase D1 (Homo sapiens) (UniProt Q15139); settings: Compound concentration 1000.0 nM
[31] = tested on: Proto-oncogene tyrosine-protein kinase receptor Ret (Homo sapiens), P07949 [V804M]; settings: Compound concentration 1000.0 nM
[32] = molecular target: NUAK family SNF1-like kinase 2 (Homo sapiens) (UniProt Q9H093); settings: Compound concentration 1000.0 nM
[33] = molecular target: Serine/threonine-protein kinase tousled-like 2 (Homo sapiens) (UniProt Q86UE8); settings: Compound concentration 1000.0 nM
[34] = molecular target: Dual specificity protein kinase TTK (Homo sapiens) (UniProt P33981); settings: Compound concentration 1000.0 nM
[35] = molecular target: Phosphatidylinositol 3-kinase catalytic subunit type 3 (Homo sapiens) (UniProt Q8NEB9); settings: Compound concentration 1000.0 nM
[36] = molecular target: T1, 5-hydroxytryptamine receptor 1A (Homo sapiens) (UniProt P08908); settings: Compound concentration 10.0 uM
T1 sequence (whole entry): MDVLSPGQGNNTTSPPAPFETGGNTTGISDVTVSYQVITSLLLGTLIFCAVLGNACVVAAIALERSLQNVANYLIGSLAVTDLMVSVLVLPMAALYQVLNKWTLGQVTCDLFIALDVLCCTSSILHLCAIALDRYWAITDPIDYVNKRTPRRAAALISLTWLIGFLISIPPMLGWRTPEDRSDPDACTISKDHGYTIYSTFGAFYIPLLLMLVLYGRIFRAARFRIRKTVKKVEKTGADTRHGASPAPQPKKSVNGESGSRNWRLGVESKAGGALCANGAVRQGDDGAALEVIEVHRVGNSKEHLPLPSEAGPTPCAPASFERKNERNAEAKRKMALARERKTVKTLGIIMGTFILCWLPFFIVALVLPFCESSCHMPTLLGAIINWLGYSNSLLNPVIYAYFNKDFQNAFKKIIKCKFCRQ

[37] = molecular target: D(1A) dopamine receptor (Homo sapiens) (UniProt P21728); settings: Compound concentration 10.0 uM
Rattus norvegicus = species on record: Rattus norvegicus; settings: Compound concentration 10.0 uM

Sequence of Casein kinase I isoform alpha (Homo sapiens) (P48729 2-337 limits assumed): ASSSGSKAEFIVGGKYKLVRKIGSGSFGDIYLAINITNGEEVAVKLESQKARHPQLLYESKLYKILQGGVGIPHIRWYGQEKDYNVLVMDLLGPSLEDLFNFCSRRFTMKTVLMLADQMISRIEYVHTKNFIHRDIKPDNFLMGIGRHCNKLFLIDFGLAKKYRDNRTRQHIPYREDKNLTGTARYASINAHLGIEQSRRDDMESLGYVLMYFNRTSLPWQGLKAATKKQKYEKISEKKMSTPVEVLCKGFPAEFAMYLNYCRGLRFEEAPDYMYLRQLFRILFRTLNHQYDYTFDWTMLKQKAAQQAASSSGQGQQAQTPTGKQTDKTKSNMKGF
Sequence of Serine/threonine-protein kinase tousled-like 2 (Homo sapiens) (Q86UE8 whole entry, looked up): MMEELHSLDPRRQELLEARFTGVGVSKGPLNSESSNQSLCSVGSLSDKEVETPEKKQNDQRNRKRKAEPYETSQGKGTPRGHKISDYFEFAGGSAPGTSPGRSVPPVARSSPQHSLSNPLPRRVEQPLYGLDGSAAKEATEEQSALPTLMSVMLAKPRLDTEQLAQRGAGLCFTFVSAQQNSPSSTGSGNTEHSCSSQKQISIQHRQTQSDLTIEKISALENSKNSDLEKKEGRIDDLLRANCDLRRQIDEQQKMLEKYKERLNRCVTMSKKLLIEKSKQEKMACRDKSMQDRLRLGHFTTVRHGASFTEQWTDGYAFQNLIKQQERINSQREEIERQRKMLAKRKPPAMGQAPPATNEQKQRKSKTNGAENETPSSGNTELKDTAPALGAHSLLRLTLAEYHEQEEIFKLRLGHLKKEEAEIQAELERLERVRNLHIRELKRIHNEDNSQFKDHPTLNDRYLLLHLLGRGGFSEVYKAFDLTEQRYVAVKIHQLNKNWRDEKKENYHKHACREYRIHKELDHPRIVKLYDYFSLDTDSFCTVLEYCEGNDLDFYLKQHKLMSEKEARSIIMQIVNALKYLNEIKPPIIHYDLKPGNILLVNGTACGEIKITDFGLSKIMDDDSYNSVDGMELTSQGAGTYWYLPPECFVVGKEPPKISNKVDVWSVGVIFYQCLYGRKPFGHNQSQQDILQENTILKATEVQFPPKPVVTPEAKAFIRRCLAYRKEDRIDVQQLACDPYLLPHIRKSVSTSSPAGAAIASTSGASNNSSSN
Sequence of Serine/threonine-protein kinase 17B (Homo sapiens) (O94768 whole entry): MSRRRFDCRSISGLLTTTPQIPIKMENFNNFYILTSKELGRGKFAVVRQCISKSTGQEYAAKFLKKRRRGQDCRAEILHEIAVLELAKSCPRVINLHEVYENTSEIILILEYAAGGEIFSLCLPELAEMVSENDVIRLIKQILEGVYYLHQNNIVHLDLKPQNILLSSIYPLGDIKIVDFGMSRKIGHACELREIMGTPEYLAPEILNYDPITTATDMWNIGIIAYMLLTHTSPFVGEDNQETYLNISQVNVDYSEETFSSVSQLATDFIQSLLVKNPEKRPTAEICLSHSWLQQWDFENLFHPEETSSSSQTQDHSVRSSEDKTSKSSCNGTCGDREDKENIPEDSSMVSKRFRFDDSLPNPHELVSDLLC
Sequence of Serine/threonine-protein kinase PAK 5 (Homo sapiens) (Q9P286 whole entry, looked up, canonical isoform): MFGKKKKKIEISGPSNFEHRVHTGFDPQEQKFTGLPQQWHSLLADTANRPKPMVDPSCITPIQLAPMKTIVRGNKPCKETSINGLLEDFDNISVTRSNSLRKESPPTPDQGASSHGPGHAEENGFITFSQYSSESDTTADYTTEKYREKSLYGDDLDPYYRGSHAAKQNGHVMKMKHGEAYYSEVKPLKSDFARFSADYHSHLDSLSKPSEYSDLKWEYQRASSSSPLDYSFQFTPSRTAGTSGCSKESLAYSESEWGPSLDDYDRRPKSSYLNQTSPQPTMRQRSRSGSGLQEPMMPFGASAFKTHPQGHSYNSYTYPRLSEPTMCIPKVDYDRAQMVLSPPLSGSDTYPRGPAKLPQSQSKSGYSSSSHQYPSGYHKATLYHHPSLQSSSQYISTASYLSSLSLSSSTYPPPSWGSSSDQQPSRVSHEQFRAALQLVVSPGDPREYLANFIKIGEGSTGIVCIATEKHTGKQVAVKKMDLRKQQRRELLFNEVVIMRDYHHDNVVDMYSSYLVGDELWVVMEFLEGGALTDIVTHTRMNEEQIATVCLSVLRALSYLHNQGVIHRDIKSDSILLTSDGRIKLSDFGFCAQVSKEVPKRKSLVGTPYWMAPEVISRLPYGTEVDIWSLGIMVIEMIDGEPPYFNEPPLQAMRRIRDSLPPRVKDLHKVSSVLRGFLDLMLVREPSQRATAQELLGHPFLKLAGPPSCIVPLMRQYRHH
Sequence of Calcium/calmodulin-dependent protein kinase type IV (Homo sapiens) (Q16566 whole entry): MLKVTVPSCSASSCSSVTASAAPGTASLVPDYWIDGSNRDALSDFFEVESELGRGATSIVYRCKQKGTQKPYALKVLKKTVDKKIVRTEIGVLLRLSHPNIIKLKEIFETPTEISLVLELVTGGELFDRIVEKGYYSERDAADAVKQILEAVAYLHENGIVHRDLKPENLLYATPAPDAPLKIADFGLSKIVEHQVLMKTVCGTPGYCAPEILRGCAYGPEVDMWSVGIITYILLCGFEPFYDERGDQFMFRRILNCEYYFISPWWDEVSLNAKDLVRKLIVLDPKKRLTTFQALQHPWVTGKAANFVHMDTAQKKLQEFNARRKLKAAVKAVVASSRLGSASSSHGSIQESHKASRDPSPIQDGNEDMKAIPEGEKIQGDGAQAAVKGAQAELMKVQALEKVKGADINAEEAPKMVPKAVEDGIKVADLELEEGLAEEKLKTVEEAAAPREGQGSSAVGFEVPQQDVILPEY
Sequence of Phosphatidylinositol 4,5-bisphosphate 3-kinase catalytic subunit delta isoform (Homo sapiens) (O00329 whole entry, canonical isoform): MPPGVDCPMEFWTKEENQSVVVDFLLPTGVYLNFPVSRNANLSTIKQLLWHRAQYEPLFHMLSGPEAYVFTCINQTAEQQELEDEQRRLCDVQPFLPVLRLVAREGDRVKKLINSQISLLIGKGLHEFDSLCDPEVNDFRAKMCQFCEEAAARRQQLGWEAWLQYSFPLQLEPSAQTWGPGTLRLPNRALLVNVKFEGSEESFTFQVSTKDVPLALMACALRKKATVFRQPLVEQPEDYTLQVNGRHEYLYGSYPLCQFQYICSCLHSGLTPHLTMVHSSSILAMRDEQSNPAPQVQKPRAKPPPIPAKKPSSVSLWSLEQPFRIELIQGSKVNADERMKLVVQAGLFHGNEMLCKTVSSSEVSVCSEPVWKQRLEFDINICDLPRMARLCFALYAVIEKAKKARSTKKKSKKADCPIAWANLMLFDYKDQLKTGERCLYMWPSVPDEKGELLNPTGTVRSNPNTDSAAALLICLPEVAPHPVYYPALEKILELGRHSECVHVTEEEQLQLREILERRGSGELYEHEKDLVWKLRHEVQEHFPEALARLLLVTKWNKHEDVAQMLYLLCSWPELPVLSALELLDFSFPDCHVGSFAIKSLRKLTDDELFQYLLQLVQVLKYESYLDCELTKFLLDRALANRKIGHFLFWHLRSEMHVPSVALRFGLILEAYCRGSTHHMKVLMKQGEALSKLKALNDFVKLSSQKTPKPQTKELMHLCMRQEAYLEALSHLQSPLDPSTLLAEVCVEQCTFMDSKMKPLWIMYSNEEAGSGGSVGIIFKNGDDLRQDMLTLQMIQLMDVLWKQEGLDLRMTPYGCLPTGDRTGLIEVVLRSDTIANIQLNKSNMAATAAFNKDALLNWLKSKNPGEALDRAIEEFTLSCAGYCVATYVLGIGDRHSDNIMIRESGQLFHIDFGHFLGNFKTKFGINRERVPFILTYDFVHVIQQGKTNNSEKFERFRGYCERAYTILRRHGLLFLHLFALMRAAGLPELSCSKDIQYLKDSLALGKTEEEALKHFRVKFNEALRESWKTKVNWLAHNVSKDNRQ
Sequence of Mitogen-activated protein kinase kinase kinase kinase 4 (Homo sapiens) (O95819 2-1239 limits assumed): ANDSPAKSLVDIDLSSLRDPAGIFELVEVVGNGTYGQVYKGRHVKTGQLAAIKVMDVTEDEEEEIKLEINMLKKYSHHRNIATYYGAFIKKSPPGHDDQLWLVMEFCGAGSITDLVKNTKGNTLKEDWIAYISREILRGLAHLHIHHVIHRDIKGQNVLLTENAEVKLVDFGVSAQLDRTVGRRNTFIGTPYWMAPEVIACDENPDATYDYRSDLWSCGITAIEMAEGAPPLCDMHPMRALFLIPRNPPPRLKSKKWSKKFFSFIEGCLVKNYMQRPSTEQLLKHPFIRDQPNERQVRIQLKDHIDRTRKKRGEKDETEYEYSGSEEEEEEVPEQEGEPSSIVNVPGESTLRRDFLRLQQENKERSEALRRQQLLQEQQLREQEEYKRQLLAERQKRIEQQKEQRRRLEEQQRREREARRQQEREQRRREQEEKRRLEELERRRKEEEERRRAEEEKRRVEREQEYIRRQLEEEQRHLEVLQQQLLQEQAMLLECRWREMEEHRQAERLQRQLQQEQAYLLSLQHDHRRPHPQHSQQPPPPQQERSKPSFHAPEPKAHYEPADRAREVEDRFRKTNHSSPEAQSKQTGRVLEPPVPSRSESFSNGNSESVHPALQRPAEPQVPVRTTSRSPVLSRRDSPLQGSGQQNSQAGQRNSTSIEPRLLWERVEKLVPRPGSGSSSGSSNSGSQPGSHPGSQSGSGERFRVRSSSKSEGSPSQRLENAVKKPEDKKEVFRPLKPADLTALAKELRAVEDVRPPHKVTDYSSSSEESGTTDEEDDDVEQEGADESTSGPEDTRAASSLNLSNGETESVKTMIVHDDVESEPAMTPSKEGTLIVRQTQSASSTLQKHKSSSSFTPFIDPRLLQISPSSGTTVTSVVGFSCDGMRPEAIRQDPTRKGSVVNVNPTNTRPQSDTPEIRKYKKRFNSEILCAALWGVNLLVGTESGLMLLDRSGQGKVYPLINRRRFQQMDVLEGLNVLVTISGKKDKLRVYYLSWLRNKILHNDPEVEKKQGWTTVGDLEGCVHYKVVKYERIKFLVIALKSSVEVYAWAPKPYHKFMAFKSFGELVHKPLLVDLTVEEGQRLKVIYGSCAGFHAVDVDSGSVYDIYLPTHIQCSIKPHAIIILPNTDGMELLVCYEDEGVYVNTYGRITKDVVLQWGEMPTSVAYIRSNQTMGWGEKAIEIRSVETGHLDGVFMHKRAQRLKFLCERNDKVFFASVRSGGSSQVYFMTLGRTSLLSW

| SMILES | IC50 (LNCaP-Clone-FGC) | IC50 (DU-145) | inhibition [1] | inhibition [2] | inhibition [3] | residual activity [4] | residual activity [5] | residual activity [6] | residual activity [7] | residual activity [8] | residual activity [9] | residual activity [10] | residual activity [11] | residual activity [12] | residual activity [13] | residual activity [14] | residual activity [15] | residual activity [16] | residual activity [17] | residual activity [18] | further results |
| --- | --- | --- | --- | --- | --- | --- | --- | --- | --- | --- | --- | --- | --- | --- | --- | --- | --- | --- | --- | --- | --- |
| CNC(=O)Nc1ccc2c(c1)[C@@]1(CC2)OC(=O)N(CC(=O)N(Cc2ccc(F)cc2)[C@@H](C)C(F)(F)F)C1=O [A-486] | > 10 µM (not active) | > 10 µM (not active) | 6% | 0% | 8% | 84% | 88% | 88% | 98% | 85% | 91% | 84% | 83% | 92% | 77% | 98% | 100% | 98% | 94% | 86% | residual activity [19]: 87%; residual activity [20]: 100%; residual activity [21]: 85%; residual activity [22]: 65%; residual activity [23]: 100%; residual activity [24]: 100%; residual activity [25]: 69%; residual activity [26]: 100%; residual activity [27]: 89%; residual activity [28]: 89%; residual activity [29]: 100%; residual activity [30]: 100%; residual activity [31]: 100%; residual activity [32]: 77%; residual activity [33]: 100%; residual activity [34]: 100%; residual activity [35]: 96%; inhibition [36]: 4.17%; inhibition [37]: 0.29%; inhibition (Rattus norvegicus): 50.6% |
| CNC(=O)Nc1ccc2c(c1)CC[C@@]21OC(=O)N(CC(=O)N(Cc2ccc(F)cc2)[C@@H](C)C(F)(F)F)C1=O [A-485] | 0.381 µM (active) | > 10 µM (not active) | 17% | -5% | -1% | 72% | 74% | 75% | 76% | 75% | 86% | 83% | 93% | 100% | 100% | 84% | 56% | 100% | 78% | 84% | residual activity [19]: 89%; residual activity [20]: 87%; residual activity [21]: 94%; residual activity [22]: 80%; residual activity [23]: 100%; residual activity [24]: 97%; residual activity [25]: 76%; residual activity [26]: 92%; residual activity [27]: 98%; residual activity [28]: 97%; residual activity [29]: 100%; residual activity [30]: 99%; residual activity [31]: 98%; residual activity [32]: 74%; residual activity [33]: 100%; residual activity [34]: 100%; residual activity [35]: 88%; inhibition [36]: 6.87%; inhibition [37]: 9.97%; inhibition (Rattus norvegicus): 60% |
